Data on 22 compounds can be found in ChEMBL document CHEMBL4665799, “Synthesis and biological evaluation of diaryl urea derivatives as FLT3 inhibitors” (Bioorg Med Chem Lett, 2020).

The structures appear in SMILES notation.

For experiment [1], the system named is Receptor-type tyrosine-protein kinase FLT3 (Homo sapiens), P36888 [UNDEFINED MUTATION]. The conditions noted are these: dose 500.0 nM.
Description: Inhibition of FLT3 ITD mutant (unknown origin) at 500 nM relative to control
In experiment [2] the target is Receptor-type tyrosine-protein kinase FLT3 (Homo sapiens, UniProt P36888, ITD).
Description: Inhibition of FLT3 ITD mutant (unknown origin)
The test system of experiment [3] is MV4-11. The experiment is described as follows: cells. The conditions noted are these: Homo sapiens.
Description: Antiproliferative activity against human MV4-11 cells assessed as reduction in cell viability
The test system of experiment [4] is MV4-11. The experiment is described as follows: Potency index, ratio of quizartinib IC50 to test compound IC50 for antiproliferative activity against human MV4-11 cells assessed as reduction in cell viability. It counts as functional.

Sequence of Receptor-type tyrosine-protein kinase FLT3 (Homo sapiens), P36888 [UNDEFINED MUTATION] (P36888 whole entry, looked up, change not shown): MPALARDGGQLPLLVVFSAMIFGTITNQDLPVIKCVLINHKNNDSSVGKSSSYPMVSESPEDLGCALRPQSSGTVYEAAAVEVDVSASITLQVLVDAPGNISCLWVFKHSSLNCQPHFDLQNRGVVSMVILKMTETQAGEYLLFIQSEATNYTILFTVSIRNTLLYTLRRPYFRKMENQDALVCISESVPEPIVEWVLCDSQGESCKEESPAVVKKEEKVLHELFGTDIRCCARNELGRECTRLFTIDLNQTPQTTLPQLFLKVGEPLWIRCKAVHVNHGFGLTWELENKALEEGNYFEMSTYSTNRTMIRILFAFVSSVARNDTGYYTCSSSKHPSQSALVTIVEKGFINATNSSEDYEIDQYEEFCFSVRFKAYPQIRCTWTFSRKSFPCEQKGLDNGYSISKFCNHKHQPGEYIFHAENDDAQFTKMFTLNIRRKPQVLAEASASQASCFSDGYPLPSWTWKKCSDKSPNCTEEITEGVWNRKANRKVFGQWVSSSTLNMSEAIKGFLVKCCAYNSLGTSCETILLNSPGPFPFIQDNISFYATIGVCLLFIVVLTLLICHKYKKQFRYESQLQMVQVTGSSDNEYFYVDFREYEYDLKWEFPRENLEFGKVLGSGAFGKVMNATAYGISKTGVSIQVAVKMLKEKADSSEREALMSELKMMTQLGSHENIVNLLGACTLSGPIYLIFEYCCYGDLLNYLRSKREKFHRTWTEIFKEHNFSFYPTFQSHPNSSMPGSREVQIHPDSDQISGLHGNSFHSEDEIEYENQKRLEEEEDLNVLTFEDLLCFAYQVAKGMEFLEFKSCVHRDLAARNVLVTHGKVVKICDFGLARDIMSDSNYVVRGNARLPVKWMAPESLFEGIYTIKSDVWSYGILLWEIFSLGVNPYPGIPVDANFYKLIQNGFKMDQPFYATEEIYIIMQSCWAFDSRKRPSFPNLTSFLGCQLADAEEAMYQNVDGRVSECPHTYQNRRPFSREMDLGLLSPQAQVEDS
Sequence of Receptor-type tyrosine-protein kinase FLT3 (P36888 whole entry, looked up, change not shown): as above

As usually defined, the inhibition is the drop in the measured response relative to a control, in per cent. Regarding `COc1ccc2c(c1)sc1nc(-c3ccc(NC(=O)Nc4cc(C)no4)cc3)cn12`, in experiment [1], the inhibition turned out to be 52.6%. For orientation: IC50 means the concentration that inhibits the measured activity by half. A higher IC50 goes with weaker potency in that assay. Turning to `CC(C)(C)c1cc(NC(=O)Nc2ccc(-c3cn4c(n3)sc3cc(OCCN5CCOCC5)ccc34)cc2)on1`, the half-inhibitory concentration (IC50) in experiment [2] amounted to 5.6 nM; in experiment [3], 0.176 nM. In addition, the “Ratio IC50” value in experiment [4] was 4.75. In addition, the inhibition in experiment [1] was 99.6%. Consider `Cc1cc(NC(=O)Nc2ccc(C(=O)Nc3ccc(-c4cn5c(n4)sc4cc(OCCN6CCOCC6)ccc45)cc3)cc2)no1`, for which the inhibition in experiment [1] turned out to be 29%. With `Cc1cc(NC(=O)Nc2ccc3c(c2)sc2nc(-c4ccc(OCCN5CCOCC5)cc4)cn23)no1`, the IC50 in experiment [2] is 82.6 nM; in experiment [3] it was 39.9 nM. The inhibition in experiment [1] worked out at 82.5%. In the case of `Cc1cc(NC(=O)Nc2ccc(-c3cn4c(n3)sc3cc(OCCN5CCOCC5)ccc34)cc2)no1`, the inhibition in experiment [1] is 79.9%. In the case of `COc1ccc2nc(NC(=O)Cc3ccc(NC(=O)Nc4cc(C)on4)cc3)sc2c1`, the inhibition in experiment [1] is -2%. For the compound `COc1ccc2c(c1)sc1nc(-c3ccc(NC(=O)Nc4cc(C(C)(C)C)no4)cc3)cn12`, the IC50 in experiment [2] worked out at 20.5 nM; in experiment [3], 1.97 nM. In addition, the inhibition in experiment [1] was 97.2%. For the compound `Cc1cc(NC(=O)Nc2ccc(CC(=O)Nc3ccc(-c4cn5c(n4)sc4cc(OCCN6CCOCC6)ccc45)cc3)cc2)on1`, the inhibition in experiment [1] amounted to 45.9%. Still for that read-out and setting: next, `CC(C)(C)c1cc(NC(=O)Nc2ccc(C(=O)Nc3ccc(-c4cn5c(n4)sc4cc(OCCN6CCOCC6)ccc45)cc3)cc2)no1`: 35%; `CC(C)(C)c1cc(NC(=O)Nc2ccc(CC(=O)Nc3ccc(-c4cn5c(n4)sc4cc(OCCN6CCOCC6)ccc45)cc3)cc2)on1`: 38.5%; `CC(C)(C)c1cc(NC(=O)Nc2ccc(CC(=O)Nc3ccc(-c4cn5c(n4)sc4cc(OCCN6CCOCC6)ccc45)cc3)cc2)no1`: 36%.

With `CC(C)(C)c1cc(NC(=O)Nc2ccc3c(c2)sc2nc(-c4ccc(OCCN5CCOCC5)cc4)cn23)on1`, the results for the IC50 in experiment [2] and in experiment [3] were 6.83 nM and 0.614 nM, respectively. Moreover, the inhibition in experiment [1] worked out at 99.3%.

With `COc1ccc2nc(NC(=O)Cc3ccc(NC(=O)Nc4cc(C(C)(C)C)no4)cc3)sc2c1`, the inhibition in experiment [1] turned out to be 6.4%.

As to `COc1ccc2nc(NC(=O)Cc3ccc(NC(=O)Nc4cc(C(C)(C)C)on4)cc3)sc2c1`, the inhibition in experiment [1] was 2.5%. Still for that read-out and setting: next, `Cc1cc(NC(=O)Nc2ccc(CC(=O)Nc3ccc(-c4cn5c(n4)sc4cc(OCCN6CCOCC6)ccc45)cc3)cc2)no1`: 35.8%; `Cc1cc(NC(=O)Nc2ccc(C(=O)Nc3ccc(-c4cn5c(n4)sc4cc(OCCN6CCOCC6)ccc45)cc3)cc2)on1`: 28.1%. For the compound `Cc1cc(NC(=O)Nc2ccc3c(c2)sc2nc(-c4ccc(OCCN5CCOCC5)cc4)cn23)on1`, the IC50 turned out to be 109 nM in experiment [2] and 88.7 nM in experiment [3]. For the same compound, in experiment [1], the inhibition was found to be 76.9%.

In the case of `COc1ccc2c(c1)sc1nc(-c3ccc(NC(=O)Nc4cc(C)on4)cc3)cn12`, the inhibition in experiment [1] came to 67.3%.

In the case of `CC(C)(C)c1cc(NC(=O)Nc2ccc3c(c2)sc2nc(-c4ccc(OCCN5CCOCC5)cc4)cn23)no1`, the IC50 in experiment [2] was found to be 8.25 nM; in experiment [3] it was 0.782 nM. For the same compound, in experiment [1], the inhibition worked out at 98.8%.

Regarding `Cc1cc(NC(=O)Nc2ccc(-c3cn4c(n3)sc3cc(OCCN5CCOCC5)ccc34)cc2)on1`, the IC50 worked out at 157 nM in experiment [2] and 33.1 nM in experiment [3]. The inhibition in experiment [1] came to 66.7%. On to `CC(C)(C)c1cc(NC(=O)Nc2ccc(C(=O)Nc3ccc(-c4cn5c(n4)sc4cc(OCCN6CCOCC6)ccc45)cc3)cc2)on1`, for which, in experiment [1], the inhibition worked out at 41.9%.

On to `COc1ccc2nc(NC(=O)Cc3ccc(NC(=O)Nc4cc(C)no4)cc3)sc2c1`, for which the inhibition in experiment [1] came out at 4.5%.
